Results on 4 molecules are retold here after ChEMBL document CHEMBL1157332, “Neuroprotective bibenzyl glycosides of Stemona tuberosa roots” (2006).

Test [1] deals with SH-SY5Y. The experiment in a line: Neuroprotective effect against 6-OHDA-induced neurotoxicity in human SH-SY5Y cells at 0.1 uM treated 1 hr before 6-OHDA injury after 24 hrs by MTT assay relative to control. It counts as functional.
The subject of test [2] is SH-SY5Y. The experiment in a line: Neuroprotective effect against 6-OHDA-induced neurotoxicity in human SH-SY5Y cells at 1 uM treated 1 hr before 6-OHDA injury after 24 hrs by MTT assay relative to control. It counts as functional. (Tetrazolium assays rely on reduction of a dye to a coloured formazan, in cell work by metabolically active cells.)

For `Cc1c(O)cc(CCc2ccccc2)cc1O[C@@H]1O[C@H](CO)[C@@H](O)[C@H](O)[C@H]1O`, the results for the Activity in test [1] and in test [2] were 50.9% and 72.4%, respectively.

Turning to `COc1cc(OC)cc(C(O[C@@H]2O[C@H](CO)[C@@H](O)[C@H](O)[C@H]2O)C(O)c2ccccc2)c1` (stereo partly drawn), the values for the Activity in test [1] and in test [2] were 29.5% and 97.3%, respectively.

On to `COc1ccc(CCc2cc(O)c(C)c(O[C@@H]3O[C@H](CO)[C@@H](O)[C@H](O)[C@H]3O)c2)cc1`, for which the Activity turned out to be 31% in test [1] and 65.6% in test [2].

For `O=C(O[C@@H]1Cc2c(O)cc(O)cc2O[C@@H]1c1cc(O)c(O)c(O)c1)c1cc(O)c(O)c(O)c1` [EPIGALOCATECHIN GALLATE], the Activity is reported as 20.1% in test [1] and 42.2% in test [2].
